Assay results reported in ChEMBL document CHEMBL3885861, “Open TG-GATES”.

Species: Rattus norvegicus
Assay: Open TG-GATES - Regimen: Daily Repeat
Type: toxicity, organism-based, Sprague-Dawley
Design: regimen Daily Repeat, gender Male, age 6 weeks
Conditions: in vivo, po, 100 mg/kg, route gavage, dose level High; for APTT / Bas / Eos / Fbg / Hb / Ht / Lym / MCH / MCHC / MCV / Mono / Neu / PT / Plat / RBC / Ret / WBC: tissue Blood; for KIDNEY_L / KIDNEY_R / KIDNEY_TOTAL: tissue Kidney; for LIVER: tissue Liver; for A/G / ALP / ALT / AST / BUN / CRE / Ca / Cl / DBIL / GLC / IP / K / LDH / Na / PL / RALB / TBIL / TC / TG / TP / gamma-GTP: tissue Plasma

Compound: O=C1CN(/N=C/c2ccc([N+](=O)[O-])o2)C(=O)N1 [NITROFURANTOIN]
- TERMINAL_BW (72 h, time 3 day): 241.1 g
- APTT (72 h, time 3 day): 17.7 s
- Bas (72 h, time 3 day): 0%
- Eos (72 h, time 3 day): 1%
- Fbg (72 h, time 3 day): 231 mg/dL
- Hb (72 h, time 3 day): 13.4 g/dL
- Ht (72 h, time 3 day): 37.9%
- Lym (72 h, time 3 day): 77.8%
- MCH (72 h, time 3 day): 21.4 pg
- MCHC (72 h, time 3 day): 35.5%
- MCV (72 h, time 3 day): 60.5 fL
- Mono (72 h, time 3 day): 3.2%
- Neu (72 h, time 3 day): 15.2%
- PT (72 h, time 3 day): 12.4 s
- Plat (72 h, time 3 day): 130.5 x10_4/uL
- RBC (72 h, time 3 day): 628.2 x10_4/ul
- Ret (72 h, time 3 day): 4.9%
- WBC (72 h, time 3 day): 70.5 x10_2/uL
- KIDNEY_L (72 h, time 3 day): 1.1 g
- KIDNEY_R (72 h, time 3 day): 1.1 g
- KIDNEY_TOTAL (72 h, time 3 day): 2.2 g
- LIVER (72 h, time 3 day): 11.7 g
- A/G (72 h, time 3 day): 1.5
- ALP (72 h, time 3 day): 909.6 IU/L
- ALT (72 h, time 3 day): 35.2 IU/L
- AST (72 h, time 3 day): 67.8 IU/L
- BUN (72 h, time 3 day): 14.2 mg/dL
- CRE (72 h, time 3 day): 0.4 mg/dL
- Ca (72 h, time 3 day): 10.6 mg/dL
- Cl (72 h, time 3 day): 100.6 meq/L
- DBIL (72 h, time 3 day): 0.1 mg/dL
- GLC (72 h, time 3 day): 209.4 mg/dL
- IP (72 h, time 3 day): 7.1 mg/dL
- K (72 h, time 3 day): 3.9 meq/L
- LDH (72 h, time 3 day): 220.2 IU/L
- Na (72 h, time 3 day): 139.6 meq/L
- PL (72 h, time 3 day): 153.8 mg/dL
- RALB (72 h, time 3 day): 3.3 g/dL
- TBIL (72 h, time 3 day): 0.1 mg/dL
- TC (72 h, time 3 day): 75 mg/dL
- TG (72 h, time 3 day): 110.8 mg/dL
- TP (72 h, time 3 day): 5.4 g/dL
- gamma-GTP (72 h, time 3 day): 1 IU/L
- TERMINAL_BW ([…], time 7 day): 266.8 g
- TERMINAL_BW ([…], time 14 day): 314.4 g
- TERMINAL_BW ([…], time 28 day): 380.6 g
- APTT ([…], time 7 day): 18.4 s
- Bas ([…], time 7 day): 0%
- Eos ([…], time 7 day): 1%
- Fbg ([…], time 7 day): 217.8 mg/dL
- Hb ([…], time 7 day): 13.5 g/dL
- Ht ([…], time 7 day): 38.1%
- Lym ([…], time 7 day): 82.6%
- MCH ([…], time 7 day): 21.6 pg
- MCHC ([…], time 7 day): 35.4%
- MCV ([…], time 7 day): 61.1 fL
- Mono ([…], time 7 day): 2.2%
- Neu ([…], time 7 day): 13.2%
- PT ([…], time 7 day): 12.8 s
- Plat ([…], time 7 day): 124 x10_4/uL
- RBC ([…], time 7 day): 624.8 x10_4/ul
- Ret ([…], time 7 day): 5.1%
- WBC ([…], time 7 day): 120.6 x10_2/uL
- APTT ([…], time 14 day): 19.8 s
- Bas ([…], time 14 day): 0%
- Eos ([…], time 14 day): 0.8%
- Fbg ([…], time 14 day): 225.4 mg/dL
- Hb ([…], time 14 day): 14.2 g/dL
- Ht ([…], time 14 day): 40.7%
- Lym ([…], time 14 day): 81.8%
- MCH ([…], time 14 day): 19.8 pg
- MCHC ([…], time 14 day): 34.8%
- MCV ([…], time 14 day): 56.9 fL
- Mono ([…], time 14 day): 2.2%
- Neu ([…], time 14 day): 14.4%
- PT ([…], time 14 day): 12.4 s
- Plat ([…], time 14 day): 133.3 x10_4/uL
- RBC ([…], time 14 day): 717.2 x10_4/ul
- Ret ([…], time 14 day): 3.9%
- WBC ([…], time 14 day): 115.5 x10_2/uL
- APTT ([…], time 28 day): 20.5 s
- Bas ([…], time 28 day): 0%
- Eos ([…], time 28 day): 1%
- Fbg ([…], time 28 day): 216.2 mg/dL
- Hb ([…], time 28 day): 14.7 g/dL
- Ht ([…], time 28 day): 42.6%
- Lym ([…], time 28 day): 83.8%
- MCH ([…], time 28 day): 18.9 pg
- MCHC ([…], time 28 day): 34.6%
- MCV ([…], time 28 day): 54.7 fL
- Mono ([…], time 28 day): 2.4%
- Neu ([…], time 28 day): 11.4%
- PT ([…], time 28 day): 12.6 s
- Plat ([…], time 28 day): 106 x10_4/uL
- RBC ([…], time 28 day): 780.2 x10_4/ul
- Ret ([…], time 28 day): 3.2%
- WBC ([…], time 28 day): 143.7 x10_2/uL
- KIDNEY_L ([…], time 7 day): 1.2 g
- KIDNEY_R ([…], time 7 day): 1.2 g
- KIDNEY_TOTAL ([…], time 7 day): 2.5 g
- KIDNEY_L ([…], time 14 day): 1.4 g
- KIDNEY_R ([…], time 14 day): 1.4 g
- KIDNEY_TOTAL ([…], time 14 day): 2.8 g
- KIDNEY_L ([…], time 28 day): 1.7 g
- KIDNEY_R ([…], time 28 day): 1.7 g
- KIDNEY_TOTAL ([…], time 28 day): 3.3 g
- LIVER ([…], time 7 day): 12.6 g
- LIVER ([…], time 14 day): 14.5 g
- LIVER ([…], time 28 day): 16.2 g
- A/G ([…], time 7 day): 1.5
- ALP ([…], time 7 day): 995.4 IU/L
- ALT ([…], time 7 day): 31.2 IU/L
- AST ([…], time 7 day): 63.8 IU/L
- BUN ([…], time 7 day): 16 mg/dL
- CRE ([…], time 7 day): 0.4 mg/dL
- Ca ([…], time 7 day): 10.8 mg/dL
- Cl ([…], time 7 day): 102.2 meq/L
- DBIL ([…], time 7 day): 0.1 mg/dL
- GLC ([…], time 7 day): 187 mg/dL
- IP ([…], time 7 day): 7 mg/dL
- K ([…], time 7 day): 4.1 meq/L
- LDH ([…], time 7 day): 218.8 IU/L
- Na ([…], time 7 day): 140.4 meq/L
- PL ([…], time 7 day): 142.4 mg/dL
- RALB ([…], time 7 day): 3.4 g/dL
- TBIL ([…], time 7 day): 0.2 mg/dL
- TC ([…], time 7 day): 70.2 mg/dL
- TG ([…], time 7 day): 111 mg/dL
- TP ([…], time 7 day): 5.7 g/dL
- gamma-GTP ([…], time 7 day): 1 IU/L
- A/G ([…], time 14 day): 1.4
- ALP ([…], time 14 day): 864.2 IU/L
- ALT ([…], time 14 day): 34.8 IU/L
- AST ([…], time 14 day): 74 IU/L
- BUN ([…], time 14 day): 15.4 mg/dL
- CRE ([…], time 14 day): 0.4 mg/dL
- Ca ([…], time 14 day): 10.3 mg/dL
- Cl ([…], time 14 day): 102.2 meq/L
- DBIL ([…], time 14 day): 0.084 mg/dL
- GLC ([…], time 14 day): 214.8 mg/dL
- IP ([…], time 14 day): 6.6 mg/dL
- K ([…], time 14 day): 3.5 meq/L
- LDH ([…], time 14 day): 208.8 IU/L
- Na ([…], time 14 day): 140.8 meq/L
- PL ([…], time 14 day): 158.8 mg/dL
- RALB ([…], time 14 day): 3.4 g/dL
- TBIL ([…], time 14 day): 0.1 mg/dL
- TC ([…], time 14 day): 79.2 mg/dL
- TG ([…], time 14 day): 110 mg/dL
- TP ([…], time 14 day): 6 g/dL
- gamma-GTP ([…], time 14 day): 1.6 IU/L
- A/G ([…], time 28 day): 1.5
- ALP ([…], time 28 day): 573.8 IU/L
- ALT ([…], time 28 day): 35.4 IU/L
- AST ([…], time 28 day): 63.8 IU/L
- BUN ([…], time 28 day): 15 mg/dL
- CRE ([…], time 28 day): 0.5 mg/dL
- Ca ([…], time 28 day): 10.3 mg/dL
- Cl ([…], time 28 day): 104 meq/L
- DBIL ([…], time 28 day): 0.1 mg/dL
- GLC ([…], time 28 day): 218.6 mg/dL
- IP ([…], time 28 day): 6 mg/dL
- K ([…], time 28 day): 3.7 meq/L
- LDH ([…], time 28 day): 159.4 IU/L
- Na ([…], time 28 day): 141.2 meq/L
- PL ([…], time 28 day): 155.2 mg/dL
- RALB ([…], time 28 day): 3.6 g/dL
- TBIL ([…], time 28 day): 0.2 mg/dL
- TC ([…], time 28 day): 75.6 mg/dL
- TG ([…], time 28 day): 109.8 mg/dL
- TP ([…], time 28 day): 6 g/dL
- gamma-GTP ([…], time 28 day): 0.8 IU/L
